The nature of the series: in vitro. The settings on record: human, hela cells, % viability.

In the case of `C#CCNC(=O)CC[C@H]1CNC(=O)[C@@H]2[C@@H](CCN2Cc2ccccc2)N1C` [CBK289034], the viability (commonly a read-out of living cells in per cent, often relative to untreated cells) at 28.5 h, 10 µM is 101%.

With `C#CCNC(=O)CC[C@H]1CNC(=O)[C@@H]2[C@@H](CCN2CC(C)(C)C)N1C` [CBK289035], the viability at 28.5 h, 10 µM amounted to 95.1%.

As to `COC[C@H]1CCCN1C(=O)CC[C@H]1CNC(=O)[C@@H]2[C@@H](CCN2C2CCOCC2)N1C` [CBK289037], the viability at 28.5 h, 10 µM turned out to be 90.9%.

As to `CC1(C)C[C@H](NC2CCOCC2)[C@@]2(CCC(=O)N3CCOCC3)CC[C@](C)(O)C[C@@H]12` [CBK289041], the viability at 28.5 h, 10 µM was found to be 91.6%.

As to `CC1(C)C[C@H](NC(=O)c2cccs2)[C@@]2(CCC(=O)N3CCCC3)CC[C@](C)(O)C[C@@H]12` [CBK289042], the viability at 28.5 h, 10 µM came to 122%.

On to `COCC(=O)N[C@H]1CC(C)(C)[C@@H]2C[C@@](C)(O)CC[C@]12CCC(=O)N1CCCC1` [CBK289043], for which the viability at 28.5 h, 10 µM was 88.4%.

Turning to `CC1(C)C[C@H](NC(=O)C2CC2)[C@@]2(CCC(=O)N3CCCC3)CC[C@](C)(O)C[C@@H]12` [CBK289044], the viability at 28.5 h, 10 µM worked out at 88.1%.

Turning to `CC1(C)C[C@H](NC(=O)c2ccccc2)[C@@]2(CCC(=O)NC3CC3)CC[C@](C)(O)C[C@@H]12` [CBK289045], the viability at 28.5 h, 10 µM amounted to 92.6%.

For `CC1=C[C@@H](CNC(=O)NC(C)C)[C@H](C(C)C)C[C@H]1CC(=O)N1CCN(C)CC1` [CBK289047], the viability at 28.5 h, 10 µM was 100%.

Consider `CC1=C[C@@H](CNC(=O)Nc2ccccc2)[C@H](C(C)C)C[C@H]1CC(=O)N1CCN(C)CC1` [CBK289048], for which the viability at 28.5 h, 10 µM is 121%.

Consider `CC1=C[C@@H](CNS(C)(=O)=O)[C@H](C(C)C)C[C@H]1CC(=O)N1CCOCC1` [CBK289050], for which the viability at 28.5 h, 10 µM worked out at 89.3%.

As for `CCNC(=O)NC[C@@H]1C=C(C)[C@H](CC(=O)N2CCOCC2)C[C@H]1C(C)C` [CBK289051], the viability at 28.5 h, 10 µM turned out to be 102%.

On to `COc1ccc(CN2C(=O)CO[C@H]3CN(c4nccc(C)n4)C[C@H]32)cc1` [CBK289056], for which the viability at 28.5 h, 10 µM was 86.1%.

Take `CC(=O)Nc1ccc([C@@H](O)[C@H]2COCC(=O)N2C)cc1` [CBK289059]: the viability at 28.5 h, 10 µM stood at 97.7%.

For the compound `O=C(Nc1ccc([C@@H](O)[C@H]2COCC(=O)N2Cc2ccc(F)cc2)cc1)c1ccccc1` [CBK289061], the viability at 28.5 h, 10 µM amounted to 86.1%.

With `O=C(N[C@@H]1CNCCC[C@H]1O)c1ccc(OCc2ccccc2)cc1` [CBK289064], the viability at 28.5 h, 10 µM is 100%.

Turning to `O=C(N[C@@H]1CNCCC[C@H]1O)c1ccc(OCCN2CCOCC2)cc1` [CBK289065], the viability at 28.5 h, 10 µM stood at 98.3%.

On to `CCNC(=O)N1CCC[C@@H](O)[C@H](NC(=O)c2ccc(OC)cc2)C1` [CBK289066], for which the viability at 28.5 h, 10 µM turned out to be 88.2%.

Take `COc1ccc(C(=O)N2C[C@@H]3C[C@H](C2)c2ccc(NC(=O)C4CC4)c(=O)n2C3)cc1` [CBK289072]: the viability at 28.5 h, 10 µM was determined as 90%.

With `N#Cc1ccc(C(=O)Nc2ccc3n(c2=O)C[C@H]2C[C@@H]3CN(C(=O)c3ccccc3)C2)cc1` [CBK289073], the viability at 28.5 h, 10 µM is 109%.

With `O=C(Nc1ccc2n(c1=O)C[C@H]1C[C@@H]2CN(C(=O)NC2CCCCC2)C1)c1cnccn1` [CBK289076], the viability at 28.5 h, 10 µM is 86.8%.

With `O=C(Nc1ccc2n(c1=O)C[C@H]1C[C@@H]2CN(c2ncccn2)C1)c1ccccc1` [CBK289077], the viability at 28.5 h, 10 µM was 86.4%.

With `O=C(NCc1ccc2c(c1)OCO2)[C@H]1CN2CCC1C[C@@H]2Cn1cc(-c2ccccn2)nn1` (stereo partly shown) [CBK289082], the viability at 28.5 h, 10 µM amounted to 102%.

Turning to `Nc1cccc(-c2cn(C[C@H]3CC4CCN3C[C@@H]4C(=O)NC3CCCCC3)nn2)c1` (stereo partly shown) [CBK289083], the viability at 28.5 h, 10 µM was determined as 84.2%.

Consider `COc1ccc(-c2cn(C[C@H]3CC4CCN3C[C@@H]4C(=O)NC3CCCCC3)nn2)cc1` (stereo partly shown) [CBK289084], for which the viability at 28.5 h, 10 µM stood at 107%.

Take `CC(C)(C)c1cn(C[C@H]2CC3CCN2C[C@@H]3C(=O)NC2CCCCC2)nn1` (stereo partly shown) [CBK289085]: the viability at 28.5 h, 10 µM was 83.9%.

In the case of `O=C(NCc1ccc(F)cc1)[C@H]1CN2CCC1C[C@@H]2Cn1cc(C2(O)CCCC2)nn1` (stereo partly shown) [CBK289093], the viability at 28.5 h, 10 µM worked out at 109%.

As to `CCCS(=O)(=O)NC[C@H]1C[C@@H]2CCN1C[C@@H]2c1cc(-c2ccccc2)nn1C` [CBK289095], the viability at 28.5 h, 10 µM worked out at 93.8%.

As to `Cn1nc(-c2ccccc2)cc1[C@H]1CN2CC[C@H]1C[C@@H]2CNC(=O)NCc1ccccc1` [CBK289098], the viability at 28.5 h, 10 µM worked out at 104%.

With `COc1ccc(-c2cc([C@H]3CN4CC[C@H]3C[C@@H]4CNC(=O)c3ccco3)n(C)n2)cc1` [CBK289099], the viability at 28.5 h, 10 µM turned out to be 113%.

On to `Cn1nc(-c2cccs2)cc1[C@H]1CN2CC[C@H]1C[C@@H]2CNS(C)(=O)=O` [CBK289102], for which the viability at 28.5 h, 10 µM was 93.5%.

For the compound `CC(C)NC(=O)NC[C@H]1C[C@@H]2CCN1C[C@@H]2c1cc(-c2cccs2)nn1C` [CBK289103], the viability at 28.5 h, 10 µM turned out to be 90%.

For the compound `Cn1nc(-c2cccs2)cc1[C@H]1CN2CC[C@H]1C[C@@H]2CNC(=O)Nc1ccccc1` [CBK289104], the viability at 28.5 h, 10 µM was 89%.

Regarding `CCNC(=O)NC[C@H]1C[C@@H]2CCN1C[C@@H]2c1cc(-c2ccccc2OC)nn1C` [CBK289105], the viability at 28.5 h, 10 µM was 118%.

`Cn1nc(C2CCCCC2)cc1[C@H]1CN2CC[C@H]1C[C@@H]2CNC(=O)c1ccco1` [CBK289106]: the viability at 28.5 h, 10 µM is 95.3%.

Take `Cn1nc(-c2ccc(F)cc2)cc1[C@H]1CN2CC[C@H]1C[C@@H]2CNC(=O)N1CCOCC1` [CBK289108]: the viability at 28.5 h, 10 µM amounted to 116%.

Turning to `CCNC(=O)NC[C@H]1C[C@@H]2CCN1C[C@@H]2c1cc(-c2ccc(F)cc2)nn1C` [CBK289110], the viability at 28.5 h, 10 µM was 88%.

With `CC(C)NC(=O)NC[C@H]1C[C@@H]2CC[N@]1C[C@@H]2CN1CCN(c2ccccn2)CC1` [CBK289112], the viability at 28.5 h, 10 µM came to 105%.

For the compound `O=C(NC[C@H]1C[C@@H]2CC[N@]1C[C@@H]2CN1CCN(c2ccccn2)CC1)Nc1ccsc1` [CBK289113], the viability at 28.5 h, 10 µM is 101%.

For `O=C(NC[C@H]1C[C@@H]2CC[N@]1C[C@@H]2CN1CCN(c2ccccn2)CC1)Nc1ccccc1` [CBK289114], the viability at 28.5 h, 10 µM worked out at 106%.

Turning to `COc1ccccc1-c1cc([C@H]2CN3CC[C@H]2C[C@@H]3CNC(=O)c2ccco2)nc(C)n1` [CBK289119], the viability at 28.5 h, 10 µM amounted to 105%.

In the case of `Cc1nc(C2CCCC2)cc([C@H]2CN3CC[C@H]2C[C@@H]3CNC(=O)c2ccco2)n1` [CBK289120], the viability at 28.5 h, 10 µM was 109%.

On to `COCC(=O)NC[C@H]1C[C@@H]2CCN1C[C@@H]2c1cc(-c2ccccc2)nc(C)n1` [CBK289123], for which the viability at 28.5 h, 10 µM is 89.3%.

Take `CCNC(=O)NC[C@H]1C[C@@H]2CCN1C[C@@H]2c1cc(-c2ccccc2)nc(C)n1` [CBK289125]: the viability at 28.5 h, 10 µM was 116%.

`CC[C@H]1CN(C(=O)C2CC2)CC[C@H]1CC(=O)N(C)CC#N` [CBK289132]: the viability at 28.5 h, 10 µM was 85.9%.

For the compound `CC[C@H]1CN(C(=O)N2CCOCC2)CC[C@H]1CC(=O)NCCOC` [CBK289134], the viability at 28.5 h, 10 µM turned out to be 100%.

As to `CC[C@H]1CN(C(=O)c2ccnc(Cl)c2)CC[C@H]1CC(=O)O` [CBK289139], the viability at 28.5 h, 10 µM came to 92%.

With `CC(C)(C)NC(=O)C[C@@H]1CCNC[C@@H]1Cc1cc(-c2ccccc2)on1` [CBK289145], the viability at 28.5 h, 10 µM amounted to 86%.

Turning to `O=C(C[C@@H]1CCNC[C@@H]1Cc1cc(-c2ccccc2)on1)NC1CC1` [CBK289146], the viability at 28.5 h, 10 µM turned out to be 88%.

For the compound `O=C(C[C@@H]1CCNC[C@@H]1Cc1cc(-c2ccccc2)on1)N1CCN(c2ccccc2)CC1` [CBK289148], the viability at 28.5 h, 10 µM is 83.2%.

For `CN1CCN(C(=O)C[C@@H]2CCNC[C@@H]2Cc2cc(CC3CCCCC3)on2)CC1` [CBK289151], the viability at 28.5 h, 10 µM stood at 84.3%.

Consider `COc1ccc(-c2cc(C[C@H]3CNCC[C@H]3CC(=O)N3CCN(C)CC3)no2)cc1` [CBK289152], for which the viability at 28.5 h, 10 µM amounted to 83.8%.

For the compound `O=C(C[C@@H]1CCNC[C@@H]1Cc1cc(CN2CCCCC2)on1)N1CCCCC1` [CBK289153], the viability at 28.5 h, 10 µM is 86.8%.

Regarding `COc1ccc2c(c1)CCN=C2C[C@H]1CN(C(=O)NC(C)C)CC[C@H]1CC(=O)O` [CBK289156], the viability at 28.5 h, 10 µM came out at 90%.

`COc1ccc2c(c1)C(C[C@H]1CN(C(=O)C3CC3)CC[C@H]1CC(=O)O)=NCC2` [CBK289157]: the viability at 28.5 h, 10 µM stood at 85.7%.

Turning to `CN(C)c1ccc(C(=O)N2CC[C@@H](CC(=O)O)[C@@H](CC3=NCCc4ccccc43)C2)cc1` [CBK289159], the viability at 28.5 h, 10 µM was found to be 94.8%.

With `O=C(O)C[C@@H]1CCN(C(=O)c2ccc3c(c2)OCO3)C[C@@H]1CC1=NCCc2ccccc21` [CBK289160], the viability at 28.5 h, 10 µM worked out at 110%.

Consider `Cc1ccc2c(c1)C(C[C@H]1CN(C(=O)c3ccco3)CC[C@H]1CC(=O)O)=NCC2` [CBK289162], for which the viability at 28.5 h, 10 µM is 79.1%.

`COc1cccc2c1CCN=C2C[C@H]1CN(C(=O)C2CC2)CC[C@H]1CC(=O)O` [CBK289164]: the viability at 28.5 h, 10 µM turned out to be 94.5%.

On to `Cc1nn(-c2ccccn2)c(C)c1[C@@H]1C=C[C@@H](NC(=O)NC(C)C)C1` [CBK289168], for which the viability at 28.5 h, 10 µM stood at 91.4%.

With `CCNC(=O)N[C@@H]1C=C[C@@H](c2c(C)nn(CCC#N)c2C)C1` [CBK289171], the viability at 28.5 h, 10 µM was determined as 111%.

Take `Cc1nn(CCC#N)c(C)c1[C@@H]1C=C[C@@H](NC(=O)NC(C)C)C1` [CBK289172]: the viability at 28.5 h, 10 µM was 89.2%.

Turning to `O=C(Nc1ccc2n(c1=O)C[C@H]1C[C@@H]2CN(C(=O)COc2ccccc2)C1)C1CCCCC1` [CBK289175], the viability at 28.5 h, 10 µM worked out at 91.9%.

With `N#Cc1ccc(C(=O)N2C[C@@H]3C[C@H](C2)c2ccc(-c4cccs4)c(=O)n2C3)cc1` [CBK289180], the viability at 28.5 h, 10 µM is 86%.

As to `Cc1ccccc1-c1ccc2n(c1=O)C[C@H]1C[C@@H]2CN(C(=O)CCC(=O)O)C1` [CBK289181], the viability at 28.5 h, 10 µM worked out at 111%.

As for `O=C(NC1CCCCC1)N1C[C@@H]2C[C@H](C1)c1ccc(-c3cccnc3)c(=O)n1C2` [CBK289183], the viability at 28.5 h, 10 µM was found to be 93.6%.

With `O=C(c1ccc(F)cc1)N1C[C@@H]2C[C@H](C1)c1ccc(-c3cncnc3)c(=O)n1C2` [CBK289185], the viability at 28.5 h, 10 µM is 92.9%.

(Values after publication PMC12040169 (PLOS Biology, 2025).)
